Among the data in PubChem BioAssay (NCI) are GI50 and TGI values, retold here.

“And” between values parts separate entries of the source, which are not always exact repeats. Equal entries are not always repeated.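 Method: 48-hour compound exposure of cells in 96-well plates, five concentrations, linear interpolation of endpoints. GI50 marks 50% less growth. TGI: concentration producing complete growth inhibition.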

Some test systems named below: 786-0 renal; ACHN renal; CAKI-1 renal; COLO 205 colon; MDA-MB-435; NCI-H460 lung; OVCAR-3 ovarian; OVCAR-5 ovarian; SK-MEL-5 melanoma; SW-620 colon.
Holding throughout (test): inhibition of tumour cell growth, NCI panel, 48 h

As for `COc1ccc(-c2nccn2-c2ccc(OC)cc2)cc1`, the GI50 in the assay on 786-0 renal is 21.9 µM; with ACHN renal, 5.64 µM; with CAKI-1 renal it was 22.9 µM; in the assay with COLO 205 colon, 28.3 µM; in the assay on MDA-MB-435, 7.53 µM; in the assay with NCI-H460 lung, 17.9 µM. For the same compound, the GI50 is 21.6 µM with OVCAR-3 ovarian, 25 µM with OVCAR-5 ovarian, 14.2 µM with SK-MEL-5 melanoma and 25 µM in the assay on SW-620 colon. For the same compound, the TGI is 60.6 µM in the assay on 786-0 renal; > 57.4 µM with ACHN renal; > 69.5 µM in the assay with CAKI-1 renal; > 100 µM in the assay on COLO 205 colon; 35.1 µM in the assay on MDA-MB-435; 60.7 µM in the assay with NCI-H460 lung. The TGI is 62.6 µM in the assay with OVCAR-3 ovarian, > 100 µM with OVCAR-5 ovarian, 30.4 µM in the assay on SK-MEL-5 melanoma and > 100 µM in the assay with SW-620 colon.

Turning to `O=C(NCc1ccc(Cn2c(=O)sn(-c3ccccc3)c2=O)cc1)OCc1ccc2cccc(O)c2n1`, the GI50 is 0.484 µM in the assay on 786-0 renal; 0.393 µM in the assay on ACHN renal; 0.479 µM in the assay with CAKI-1 renal; 0.608 µM in the assay with COLO 205 colon; 0.709 µM with MDA-MB-435; 1.41 µM in the assay with NCI-H460 lung. For the same compound, the GI50 is 0.363 µM with OVCAR-3 ovarian, 1.54 µM with OVCAR-5 ovarian, 1.6 µM with SK-MEL-5 melanoma and 0.301 µM in the assay with SW-620 colon. Further, the TGI with 786-0 renal amounted to 1.08 µM; in the assay with ACHN renal, 1.47 µM; in the assay with CAKI-1 renal, 1.84 µM; in the assay on COLO 205 colon, 2.29 µM; with MDA-MB-435, 2.03 µM; with NCI-H460 lung it was 3.13 µM. Further, the TGI in the assay on OVCAR-3 ovarian was 1.36 µM; in the assay with OVCAR-5 ovarian, 3.12 µM; in the assay on SK-MEL-5 melanoma, 2.97 µM; with SW-620 colon, 0.951 µM.

On to `O=C(Nc1cc(Nc2ncccc2-c2ncnc3nc[nH]c23)ccc1F)c1cc(C(F)(F)F)cc(C(F)(F)F)c1`, for which the GI50 in the assay on 786-0 renal is 3.55 µM; in the assay with ACHN renal, 1.42 µM; in the assay with COLO 205 colon, 0.39 µM; in the assay with MDA-MB-435, 0.996 µM; with NCI-H460 lung it was 1.98 µM; in the assay on OVCAR-3 ovarian, 2.67 µM. Moreover, the GI50 in the assay on OVCAR-5 ovarian is 0.868 µM; with SK-MEL-5 melanoma, 1.12 µM; in the assay on SW-620 colon it was 1.54 µM. For the same compound, the TGI is 9.52 µM in the assay with 786-0 renal; 4.27 µM with ACHN renal; 2.2 µM with COLO 205 colon; > 10 µM with MDA-MB-435; 5.31 µM with NCI-H460 lung; 6.69 µM in the assay with OVCAR-3 ovarian. Further, the TGI in the assay on OVCAR-5 ovarian is 2.98 µM; in the assay with SK-MEL-5 melanoma, 2.76 µM; in the assay with SW-620 colon it was > 10 µM.

For the compound `CN(C)C(=S)SSC(=S)N(C)C`, the GI50 in the assay with 786-0 renal is 18.2 µM and 35.2 µM and 17.3 µM; in the assay with ACHN renal it was 15.7 µM and 55.6 µM and 19.7 µM; in the assay on CAKI-1 renal, 15.9 µM and 61.5 µM and 21.1 µM; with MDA-MB-435, 15.6 µM and 8.04 µM and 21.1 µM; with NCI-H460 lung, 0.365 µM and 0.324 µM and 1.43 µM; in the assay with OVCAR-5 ovarian, 14.9 µM and > 58.4 µM and 16.6 µM. In addition, the TGI with 786-0 renal is 33.4 µM and > 80.9 µM and 36.5 µM; in the assay on ACHN renal, 30.2 µM and > 100 µM and 37.1 µM; in the assay on CAKI-1 renal it was 31.4 µM and > 100 µM and 40.1 µM; with COLO 205 colon, 29.3 µM; in the assay on MDA-MB-435, 38.6 µM and 33.5 µM and > 56.7 µM; in the assay on NCI-H460 lung it was 25.2 µM and 13.6 µM and 53 µM. Besides, the TGI in the assay with OVCAR-5 ovarian is 28.2 µM and > 72.6 µM and 33.5 µM; in the assay with SK-MEL-5 melanoma, > 100 µM and 20.8 µM and 29.2 µM; in the assay with SW-620 colon it was 22.8 µM and 22.1 µM and > 56.6 µM.

In the case of `N#CCCN1C/C(=C/c2ccc(Br)cc2)C(=O)/C(=C/c2ccc(Br)cc2)C1`, the GI50 was 1.38 µM with 786-0 renal; 1.76 µM in the assay with ACHN renal; 2.78 µM in the assay with CAKI-1 renal; 1.57 µM in the assay on COLO 205 colon; 2.24 µM with MDA-MB-435; 1.92 µM in the assay on OVCAR-5 ovarian. The GI50 in the assay on SK-MEL-5 melanoma was 1.58 µM. For the same compound, the TGI in the assay with 786-0 renal was 2.84 µM; in the assay on ACHN renal, 3.37 µM; with CAKI-1 renal, > 100 µM; with COLO 205 colon, 2.97 µM; with MDA-MB-435, 6.83 µM; in the assay on OVCAR-5 ovarian it was 3.97 µM. Moreover, the TGI in the assay on SK-MEL-5 melanoma was 2.93 µM.

As for `O=C1c2ccccc2-c2c1c1ccccc1c(=O)n2CCN1CCNCC1`, the GI50 in the assay on 786-0 renal was 2.88 µM; in the assay on ACHN renal it was 0.316 µM; with CAKI-1 renal, 0.465 µM; in the assay on COLO 205 colon, 5.4 µM; with MDA-MB-435 it was 1.97 µM; in the assay on NCI-H460 lung, 0.668 µM. Also, the GI50 in the assay with OVCAR-3 ovarian was 1.12 µM; with OVCAR-5 ovarian it was 1.55 µM; with SW-620 colon, 1.47 µM. Further, the TGI in the assay with 786-0 renal is 12.4 µM; with ACHN renal it was 1.3 µM; in the assay on CAKI-1 renal it was 2.9 µM; in the assay on COLO 205 colon it was 18.2 µM; in the assay with MDA-MB-435, 4.2 µM; in the assay on NCI-H460 lung, > 100 µM. Also, the figures for the TGI in the assay with OVCAR-3 ovarian, with OVCAR-5 ovarian and in the assay with SW-620 colon were 6.93 µM, 6.92 µM and 7.28 µM, respectively.

As for `O=C(/C(=C\c1c(-c2ccccc2)[nH]c2ccccc12)S(=O)(=O)c1ccccc1)c1ccccc1`, the GI50 in the assay on 786-0 renal was > 100 µM; with ACHN renal it was 6.67 µM; in the assay on CAKI-1 renal, 3.13 µM; in the assay with COLO 205 colon, 7.8 µM; in the assay with MDA-MB-435 it was 3.94 µM; in the assay with NCI-H460 lung, 5.9 µM. In addition, the GI50 in the assay on OVCAR-3 ovarian is > 100 µM; with OVCAR-5 ovarian it was > 100 µM; with SK-MEL-5 melanoma it was 9.01 µM. Moreover, the TGI with 786-0 renal, in the assay on ACHN renal, in the assay with CAKI-1 renal, in the assay on COLO 205 colon, in the assay on MDA-MB-435 and in the assay with NCI-H460 lung was > 100 µM throughout. Besides, the TGI with OVCAR-3 ovarian, with OVCAR-5 ovarian and in the assay on SK-MEL-5 melanoma was > 100 µM in each case.

For `Cn1cc(-c2csc(-c3cn(CCCCN4CCCCC4)c4ccccc34)n2)c2cccnc21`, the GI50 in the assay with 786-0 renal was 1.64 µM; in the assay on ACHN renal, 1.67 µM; with MDA-MB-435, 1.13 µM; in the assay on NCI-H460 lung, 1.83 µM; with OVCAR-3 ovarian it was 1.71 µM; in the assay with OVCAR-5 ovarian, 1.6 µM. Moreover, the GI50 with SW-620 colon is 1.72 µM. The TGI was found to be 3.05 µM with 786-0 renal; 3.03 µM with ACHN renal; 2.36 µM in the assay with MDA-MB-435; 3.44 µM in the assay on NCI-H460 lung; 3.13 µM with OVCAR-3 ovarian; 3.06 µM with OVCAR-5 ovarian. Further, the TGI with SW-620 colon is 3.25 µM.

`COc1ccc(C(=O)c2cc(OC)c(OC)c(OC)c2)cc1OC`: the TGI was > 100 µM with 786-0 renal; > 100 µM with ACHN renal; 1.89 µM in the assay on MDA-MB-435; > 100 µM in the assay on NCI-H460 lung; 9.47 µM in the assay on OVCAR-3 ovarian; > 100 µM in the assay with OVCAR-5 ovarian. Moreover, the TGI with SK-MEL-5 melanoma and with SW-620 colon was > 100 µM throughout.
